US20220023317A1, “PREVENTING OR MITIGATING CHEMOTHERAPY INDUCED ALOPECIA USING VITAMIN D” (Berg LLC, priority 2013, published 2022)

Tests used:
[1] = test system: MIAC51; experiment: Cure / survival rate of chloroleukemic rats after chemotherapy; assay type: in vivo, rat; conditions: CTX, after two rounds of chemotherapy
Method: On day 5 after birth all rats received 1×105 MIAC51 intraperitoneally in 0.1 mL of serum free (SF) RPMI. MIAC51 were cultured in RPMI 1640 supplemented with L-glutamine and 10% fetal bovine serum at […] in a 5% CO2, 100% humidity incubator. Cells were grown to 50% confluency (1.5×106 mL) collected in 50 mL conical tubes, centrifuged at 600 g for 10 minutes at room temperature and resuspended in SF-RPMI at a concentration of 1×10^6/mL prior to injection.

[2] = test system: Long Evans Rats; experiment: Alopecia in chloroleukemic Long Evans rats receiving multi-course chemotherapy; assay type: in vivo, rat; conditions: CTX
Source text: Animals were then randomized in four groups.
Treatments were started on day 6 after birth.
Unused preparations were disposed of.

[3] = test system: Long Evans and Sprague Dawley rats; conditions: CTX 37.5 mg/kg once i.p.
Method: Specifically, Long Evans and Sprague Dawley rats with pups were purchased from Harlan Laboratories, Inc. They were housed and fed according to applicable animal handling rules and regulations. Pups were allowed to acclimate for 48 hours prior to the start of experiments. […] Rats were isolated from their littermates and mother for 6-hour periods of time. Subsequently, the treated area was cleaned with soap and water and pups were returned to their litters. On day 13, rats either received etoposide (1.5 mg/kg daily for 3 days) or cyclophosphamide (CTX) (37.5 mg/kg once) or combination cyclophosphamide (35 mg/kg once) and doxorubicin (2.5 mg/kg daily for 3 days). All chemotherapies were purchased from Sigma and were given intraperitoneally (i.p.) in a total volume of 0.1 mL. Alopecia was recorded 10 days after the last dose of chemotherapy.

Compound: O=P1(N(CCCl)CCCl)NCCCO1 (stereo not drawn) [CTX]
- % cured / survival rate [1]: 20%
- Cured (number of rats) ([1]; of 40): 8
- extent of alopecia (grade) ([2]; first round of chemotherapy, all rats): +4
- rats with alopecia grade 4+ (number) ([2]; first round, 4+ = 75-100% alopecia, of 40): 40
- rats with alopecia grade 4+ (number) ([2]; second round, of 8): 8
- alopecia in control rats that received cyclophosphamide [3]: totally alopecic
